Source: patent US9815851B2, “Pyrrolo carboxamides as modulators of orphan nuclear receptor RAR-related orphan receptor-gamma (RORγ, NR1F3) activity and for the treatment of chronic inflammatory and autoimmune diseases” (PHENEX PHARMACEUTICALS AG, priority 2011, dated 2017)
Where two headings read alike, the source gives them in different places.

Tests used:
RORγ = biological target: T1, RORγ (UniProt P51449); assay: RORγ Gal4 Reporter Gene Assay in 293T cells (firefly and renilla luciferase); assay type: cell-based, human
T1 sequence (P51449 1-518): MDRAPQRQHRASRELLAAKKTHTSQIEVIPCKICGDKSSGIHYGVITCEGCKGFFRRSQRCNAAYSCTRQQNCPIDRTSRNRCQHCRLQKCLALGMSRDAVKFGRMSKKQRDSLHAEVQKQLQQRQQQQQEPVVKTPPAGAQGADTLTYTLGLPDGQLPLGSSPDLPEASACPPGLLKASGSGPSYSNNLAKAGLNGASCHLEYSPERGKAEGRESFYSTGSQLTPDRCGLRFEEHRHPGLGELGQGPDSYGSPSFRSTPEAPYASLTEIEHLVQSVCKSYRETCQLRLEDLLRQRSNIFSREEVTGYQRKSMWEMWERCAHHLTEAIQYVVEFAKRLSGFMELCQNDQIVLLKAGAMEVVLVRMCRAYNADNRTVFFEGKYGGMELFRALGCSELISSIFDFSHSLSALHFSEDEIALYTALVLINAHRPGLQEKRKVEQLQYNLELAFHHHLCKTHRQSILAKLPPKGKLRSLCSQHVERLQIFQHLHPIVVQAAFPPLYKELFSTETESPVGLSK

[1] = biological target: T2, RORγ ligand binding domain (LBD) (Homo sapiens, UniProt P51449); assay: TR-FRET Activity Assay (ligand sensing, RORγ-LBD / coactivator peptide interaction, LANCE); assay type: biochemical
T2 construct: made in house; host or cells: E. coli BL-21 (BL3), vector pDEST15
T2 sequence (P51449 269-508 limits assumed): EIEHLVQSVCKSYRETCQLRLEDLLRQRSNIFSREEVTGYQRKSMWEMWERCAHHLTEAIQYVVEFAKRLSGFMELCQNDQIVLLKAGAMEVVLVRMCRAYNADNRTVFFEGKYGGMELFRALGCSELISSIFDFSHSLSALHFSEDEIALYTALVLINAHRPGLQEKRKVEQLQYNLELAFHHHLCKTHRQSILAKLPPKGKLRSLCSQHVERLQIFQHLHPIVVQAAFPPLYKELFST

[2] = second value of the cell, Gal4 reporter gene assay in 293T cells, firefly luciferase
[3] = third value of the cell, Gal4 reporter gene assay in 293T cells, renilla normalised luciferase
[4] = first value of the cell FRET/FF/REN, TR-FRET activity assay, read-out: pIC50 (FRET) (converted)

Row | SMILES | pIC50 (FF) (RORγ; [2]) | pIC50 (REN) (RORγ; [3]) | IC50 [1, 4] [nM] | pIC50 (FF) (RORγ) | pIC50 (REN) (RORγ) | IC50 [1] [nM]
1 | Cc1c(C(=O)N[C@H]2C[C@](C)(C(=O)O)C2)cc(-c2ccc(S(=O)(=O)NC(C)(C)C)c(C(F)F)c2)n1CC1CCCCC1 [17/170] | 6.8 | 7.0 | 316 |  |  | 
2 | Cc1c(C(=O)NCCC(C)(C)C(=O)O)cc(-c2ccc(S(=O)(=O)NC(C)(C)C)c(OC(F)(F)F)c2)n1CC1CCCCC1 [17/172] | 7.5 | 7.5 | 398 |  |  | 
3 | Cc1c(C(=O)NCC(C)(C)C(=O)O)cc(-c2ccc(S(=O)(=O)NC(C)(C)C)c(OC(F)(F)F)c2)n1CC1CCCCC1 [17/173] | 7.3 | 7.3 | 316 |  |  | 
4 | Cc1c(C(=O)N[C@H]2C[C@H](C(=O)O)C2)cc(-c2ccc(S(=O)(=O)NC(C)(C)C)c(OC(F)(F)F)c2)n1CC1CCCCC1 [17/174] | 7.1 | 7.1 | 200 |  |  | 
5 | Cc1c(C(=O)NC2CCOCC2)cc(-c2ccc(S(=O)(=O)NC(C)(C)C)c(C(F)(F)F)c2)n1C1CC12CCCC2 (stereo not drawn) [17/175] | 6.6 | 6.7 | 794 |  |  | 
6 | Cc1c(C(=O)NC2CCOCC2)cc(-c2ccc(S(=O)(=O)NC(C)(C)C)c(C(F)(F)F)c2)n1CC1(C)CCCC1 [17/176] | 7.1 | 7.0 | 251 |  |  | 
7 | Cc1c(C(=O)NC2CCOCC2)cc(-c2ccc(S(=O)(=O)NC(C)(C)C)c(C(F)(F)F)c2)n1CC1CC(C)C1 (stereo not drawn) [17/177] | 7.3 | 7.4 | 158 |  |  | 
8 | Cc1c(C(=O)NCCc2noc(=O)[nH]2)cc(-c2cc(C(C)(C)C)cc(C3(C)CC3)c2)n1CC1CCCCC1 [17/178] | 7.9 | 7.9 | 794 |  |  | 
9 | Cc1c(C(=O)N2CC(CC(=O)O)C2)cc(-c2ccc(S(=O)(=O)NC(C)(C)C)c(C(F)(F)F)c2)n1CC1CCCCC1 [17/179] | 6.1 | 6.1 | 398 |  |  | 
10 | Cc1c(C(=O)N2CC(C(C)(C)C(=O)O)C2)cc(-c2ccc(S(=O)(=O)NC(C)(C)C)c(C(F)(F)F)c2)n1CC1CCCCC1 [17/180] | 7.1 | 7.2 | 631 |  |  | 
11 | Cc1c(C(=O)NC23CCC(C(=O)O)(CC2)CC3)cc(-c2ccc(S(=O)(=O)NC(C)(C)C)c(C(F)(F)F)c2)n1CC1CCCCC1 [17/182] |  |  |  | 6.3/7.8/7.9 | 6.3/7.8/7.9 | 501
12 | Cc1c(C(=O)NC2CCOCC2)cc(-c2ccc(S(=O)(=O)NC(C)(C)C)c3sccc23)n1CC1CCCCC1 [17/183] | 7.9 | 8.1 | 200 |  |  | 
13 | Cc1c(C(=O)N[C@H]2C[C@H](C(=O)O)C2)cc(-c2ccc(S(=O)(=O)NC(C)(C)C)c3sccc23)n1CC1CCCCC1 [17/184] | 6.9 | 7.1 | 794 |  |  | 
14 | Cc1c(C(=O)NC2CCOCC2)cc(-c2cc(C(C)(C)O)cc3ccccc23)n1CC1CCCCC1 [17/185] |  |  |  | 6.3/6.4/6.2 | 6.3/6.4/6.2 | 501
15 | COC(C)(c1cc(-c2cc(C(=O)NC3CCOCC3)c(C)n2CC2CCCCC2)cc(C(C)(C)C)c1)C(F)(F)F (stereo not drawn) [17/186] | 6.9 | 7.1 | 398 |  |  | 
16 | Cc1c(C(=O)N[C@H]2C[C@H](C(=O)O)C2)cc(-c2cc(C(C)(C)O)cc3ccccc23)n1CC1CCCCC1 [17/187] | < 4.7 | < 4.7 | 15800 |  |  | 
17 | Cc1c(C(=O)NC2CCOCC2)cc(-c2cc(C(=O)NC(C)(C)C)cc3ccccc23)n1CC1CCCCC1 [17/188] | 6.8 | 6.9 | 794 |  |  | 
